Measured values from PubChem BioAssay (NCI).
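Five concentrations, 48 hours, 96-well plates. Definition used: TGI = concentration required for complete inhibition of growth.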

Assays:
Assay in all cases: growth of human tumour cells (NCI), 48 h
[1] = test system: CAKI-1 renal
[2] = test system: CCRF-CEM leukemia
[3] = test system: EKVX NSCLC
[4] = test system: M14 melanoma
[5] = test system: MCF7 breast
[6] = test system: NCI-H460 lung
[7] = test system: NCI-H522 lung
[8] = test system: NCI/ADR-RES ovarian
[9] = test system: OVCAR-5 ovarian
[10] = test system: UACC-62 melanoma

CC(C)Oc1cc2c(cc1O)CC[C@@H]1[C@@H]2CC[C@]2(C)[C@@H](O)CC[C@@H]12
TGI [1]: > 20 µM | TGI [2]: > 39.8 µM | TGI [3]: > 62 µM | TGI [4]: 18.4 µM | TGI [5]: 30.3 µM | TGI [6]: 14.4 µM | TGI [7]: 6.75 µM | TGI [8]: 19.9 µM | TGI [9]: 60.7 µM | TGI [10]: 13.2 µM

COC(=O)c1c(C)cccc1C1CN=NC12Cc1cccc(C)c1C2=O (stereo not drawn)
TGI [1]: > 100 µM | TGI [2]: 71.1 µM | TGI [3]: > 100 µM | TGI [4]: 25.5 µM | TGI [5]: > 100 µM | TGI [6]: 45.1 µM | TGI [7]: 75.7 µM | TGI [8]: > 100 µM | TGI [9]: > 100 µM | TGI [10]: 74 µM

COC(CC1(CCNc2ccccc2)C(=O)N(COCC[Si](C)(C)C)c2ccccc21)OC (stereo not drawn)
TGI [1]: > 62.2 µM | TGI [2]: > 31.6 µM | TGI [3]: 31.7 µM | TGI [4]: 6.92 µM | TGI [5]: 30.4 µM | TGI [6]: 34.4 µM | TGI [7]: 24.2 µM | TGI [8]: 39.6 µM | TGI [9]: 35 µM | TGI [10]: 29.8 µM

O=C(O)c1cc(Nc2c(O)c3c(c(O)c2Cl)C(=O)C=CC3=O)ccc1O
TGI [1]: > 10 µM | TGI [2]: > 10 µM | TGI [3]: > 10 µM | TGI [4]: > 10 µM | TGI [5]: > 10 µM | TGI [6]: > 10 µM | TGI [8]: > 10 µM | TGI [9]: > 10 µM | TGI [10]: > 10 µM

NC(=O)CC[C@H]1C(=O)N=C(N)N1C(=O)OCc1ccccc1
TGI [1]: > 100 µM | TGI [3]: > 100 µM | TGI [5]: > 100 µM | TGI [6]: > 100 µM | TGI [7]: > 100 µM | TGI [8]: > 100 µM | TGI [9]: > 100 µM | TGI [10]: > 100 µM

Oc1ccc(O)c(Sc2nnc(CCCCCCCCc3nnc(Sc4cc(O)ccc4O)o3)o2)c1
TGI [1]: 69.7 µM | TGI [3]: > 100 µM | TGI [4]: > 100 µM | TGI [5]: 94.1 µM | TGI [6]: > 100 µM | TGI [7]: 55 µM | TGI [8]: > 100 µM | TGI [9]: > 100 µM | TGI [10]: > 100 µM

C=C(C)[C@@H]1CC[C@]2(C(=O)OC3OC(COC4OC(CO)C(OC5OC(C)C(O)C(O)C5O)C(O)C4O)C(O)C(O)C3O)CC[C@]3(C)[C@H](CC[C@@H]4[C@@]5(C)CC[C@H](O)[C@@](C)(CO)[C@@H]5CC[C@]43C)[C@@H]12 (stereo partly drawn)
TGI [1]: > 9.66 µM | TGI [3]: > 10 µM | TGI [4]: > 10 µM | TGI [5]: > 10 µM | TGI [6]: 5.11 µM | TGI [7]: 9.56 µM | TGI [8]: > 10 µM | TGI [9]: > 10 µM | TGI [10]: 4.76 µM

CCCC(CC)c1cc(O)c(O)cc1C(CC)CCC (stereo not drawn)
TGI [1]: > 10 µM | TGI [2]: > 10 µM | TGI [3]: > 10 µM | TGI [4]: > 10 µM | TGI [5]: > 10 µM | TGI [6]: > 10 µM | TGI [7]: > 10 µM | TGI [8]: > 10 µM | TGI [9]: > 10 µM | TGI [10]: > 10 µM

CC1Cc2c(cc(N)nc2Br)NC1=O (stereo not drawn)
TGI [1]: > 100 µM | TGI [2]: > 100 µM | TGI [3]: > 100 µM | TGI [4]: > 100 µM | TGI [5]: > 100 µM | TGI [6]: > 100 µM | TGI [7]: > 100 µM | TGI [8]: > 100 µM | TGI [9]: > 100 µM | TGI [10]: > 100 µM

Cc1cc(C)c(C#N)c(SC(=S)NC(=O)c2ccccc2)n1
TGI [1]: > 100 µM | TGI [2]: > 100 µM | TGI [3]: > 100 µM | TGI [4]: > 100 µM | TGI [5]: > 100 µM | TGI [6]: > 100 µM | TGI [7]: > 100 µM | TGI [8]: > 100 µM | TGI [9]: > 100 µM | TGI [10]: > 100 µM

O=P1(N(CCCl)CCCl)NCCCO1 (stereo not drawn)
TGI [1]: > 191 µM | TGI [2]: 213 µM | TGI [3]: > 250 µM | TGI [4]: > 250 µM | TGI [5]: > 250 µM | TGI [6]: > 238 µM | TGI [7]: > 250 µM | TGI [8]: > 250 µM | TGI [9]: > 238 µM | TGI [10]: > 250 µM

COC(C[C@H]1CCCC[C@]1(O)/C(=C\CO[Si](C(C)C)(C(C)C)C(C)C)Sc1ccccc1)OC
TGI [1]: > 100 µM | TGI [2]: > 100 µM | TGI [3]: > 100 µM | TGI [4]: > 100 µM | TGI [5]: > 100 µM | TGI [6]: > 100 µM | TGI [7]: 39.6 µM | TGI [8]: > 100 µM | TGI [9]: > 100 µM | TGI [10]: > 100 µM

COC(=O)NC(Nc1ccc(C)cc1)(C(F)(F)F)C(F)(F)F
TGI [1]: > 100 µM | TGI [2]: > 100 µM | TGI [3]: > 100 µM | TGI [4]: > 100 µM | TGI [5]: > 100 µM | TGI [6]: > 100 µM | TGI [7]: > 100 µM | TGI [8]: > 100 µM | TGI [9]: > 100 µM | TGI [10]: > 100 µM

OCC1c2ccccc2-n2nc(-c3ccccc3)c(O)c21 (stereo not drawn)
TGI [1]: 31.7 µM | TGI [2]: > 100 µM | TGI [3]: > 100 µM | TGI [5]: 36.7 µM | TGI [6]: 77.2 µM | TGI [7]: 48.7 µM | TGI [8]: 51.1 µM | TGI [9]: > 100 µM | TGI [10]: 67.7 µM

CCC(=O)Nc1ccc(N2C(=O)/C(=C/c3ccc(O)c(OC)c3)N=C2c2ccccc2)cc1
TGI [1]: > 100 µM | TGI [2]: > 100 µM | TGI [3]: 46.4 µM | TGI [4]: > 100 µM | TGI [5]: > 100 µM | TGI [6]: > 100 µM | TGI [7]: > 100 µM | TGI [8]: > 100 µM | TGI [9]: > 100 µM | TGI [10]: > 100 µM

O=C1Sc2cc3ccccc3cc2C(=O)Sc2cc3ccccc3cc21
TGI [1]: > 90.1 µM | TGI [2]: 12.5 µM | TGI [3]: > 100 µM | TGI [4]: > 63.9 µM | TGI [5]: > 100 µM | TGI [6]: > 100 µM | TGI [7]: 41.5 µM | TGI [8]: > 92.3 µM | TGI [9]: > 100 µM | TGI [10]: 67.2 µM

Cc1ccc(S(=O)(=O)CC2CCCn3c2c(C#N)c2ccccc23)cc1 (stereo not drawn)
TGI [1]: > 100 µM | TGI [2]: > 100 µM | TGI [3]: > 100 µM | TGI [4]: > 100 µM | TGI [5]: > 100 µM | TGI [7]: > 100 µM | TGI [8]: > 100 µM | TGI [9]: > 100 µM | TGI [10]: > 100 µM

CC(=O)c1cc(S(=O)(=O)c2ccc(O)c(C(C)=O)c2)ccc1O
TGI [1]: > 100 µM | TGI [2]: > 100 µM | TGI [3]: > 100 µM | TGI [4]: > 100 µM | TGI [5]: > 100 µM | TGI [6]: > 100 µM | TGI [7]: > 100 µM | TGI [8]: > 100 µM | TGI [9]: > 100 µM | TGI [10]: > 100 µM

Cc1ccc(C2(N3CCOCC3)OC(C)(C)c3cccc4cccc2c34)cc1 (stereo not drawn)
TGI [1]: 50.1 µM | TGI [2]: 65.7 µM | TGI [3]: 29.2 µM | TGI [4]: 32.7 µM | TGI [5]: 33.2 µM | TGI [6]: 30.2 µM | TGI [7]: 30.8 µM | TGI [8]: 31.2 µM | TGI [9]: 34.4 µM | TGI [10]: 27.8 µM

N#C[C@H]1C(=O)C(c2nc3ccccc3[nH]2)S[C@H]1c1ccccc1 (stereo partly drawn)
TGI [1]: > 100 µM | TGI [2]: > 100 µM | TGI [3]: > 100 µM | TGI [4]: > 100 µM | TGI [5]: > 100 µM | TGI [6]: > 100 µM | TGI [7]: 52.6 µM | TGI [8]: > 100 µM | TGI [9]: > 100 µM | TGI [10]: 36.7 µM
